Patent publication US20090143279A1 (priority 2007, published 2009)
Where two headings read alike, the source gives them in different places.

Assays:
mtOXPHOS transcripts = assay type: cell-based, mouse; settings: for mitoOX / mitoOX (composite Z-score): Conc 20 μM; for mitoOX (composite Z-score): normalized score vs mock-treated (DMSO) wells
C2C12 myotubes = settings: Conc 20 μM; for Viability (composite Z-score): normalized score vs mock-treated (DMSO) wells
OXPHOS gene expression = assay type: cell-based, mouse; settings: Conc 20 μM; for GE-HTS (composite Z-score): normalized score vs mock-treated (DMSO) wells
[1] = test system: cellular dehydrogenase activity; settings: Conc 20 μM; for MTT (composite Z-score): normalized score vs mock-treated (DMSO) wells
nuOXPHOS transcripts = assay type: cell-based, mouse; settings: for nucOX / nucOX (composite Z-score): Conc 20 μM; for nucOX (composite Z-score): normalized score vs mock-treated (DMSO) wells
[2] = test system: mitochondrial membrane potential; assay type: cell-based, mouse; settings: Conc 20 μM; for ΔΨm (composite Z-score): normalized score vs mock-treated (DMSO) wells
reactive oxygen species = assay type: cell-based, mouse; settings: Conc 20 μM; for ROS (composite Z-score): normalized score vs mock-treated (DMSO) wells
cytochrome c = assay type: cell-based, mouse; settings: Conc 20 μM; for cyt c (composite Z-score): normalized score vs mock-treated (DMSO) wells
Sequence of cytochrome c (P62897 whole entry): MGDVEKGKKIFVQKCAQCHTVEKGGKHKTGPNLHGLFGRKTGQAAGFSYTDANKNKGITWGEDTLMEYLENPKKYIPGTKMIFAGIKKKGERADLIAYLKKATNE

[3] = composite Z-score vs mock-treated (DMSO) wells
[4] = Table 7, C2C12 myotubes, 48 h, composite Z-score
[5] = composite Z-score vs DMSO wells
[6] = normalized composite Z-score vs mock-treated (DMSO) wells

Compound | mitoOX (mtOXPHOS transcripts; composite Z-score vs DMSO) | Viability (C2C12 myotubes; composite Z-score vs DMSO) | GE-HTS (OXPHOS gene expression; composite Z-score vs DMSO) | MTT ([1]; composite Z-score vs DMSO) | nucOX (nuOXPHOS transcripts; composite Z-score vs DMSO) | ΔΨm ([2]; composite Z-score vs DMSO) | ROS (reactive oxygen species; composite Z-score vs DMSO) | cyt c (cytochrome c; composite Z-score vs DMSO) | mitoOX (composite Z-score) (mtOXPHOS transcripts) | Viability (composite Z-score) (C2C12 myotubes) | GE-HTS (composite Z-score) (OXPHOS gene expression) | MTT (composite Z-score) [1] | nucOX (composite Z-score) (nuOXPHOS transcripts) | ΔΨm (composite Z-score) [2] | ROS (composite Z-score) (reactive oxygen species) | cyt c (composite Z-score) (cytochrome c) | further results
COC(=O)C[C@H]1C2(C)CC34OC5(C)O[C@@]6([C@H](OC(C)=O)C(OC(C)=O)[C@]7(C)C(/C(=C(/O)C(C)C)C(=O)O[C@H]7c7ccoc7)[C@@]6(O5)[C@H](OC(C)=O)[C@@]3(O)C2OC(=O)C(C)C)[C@]14C (stereo partly shown) [bussein] | −0.868 | −0.052 | −0.809 | −0.599 | −0.683 | −0.807 | 0.656 | 0.622 |  |  |  |  |  |  |  |  | mitoOX (mtOXPHOS transcripts; [3]): 1.660; Viability (C2C12 myotubes; [3]): 0.575; GE-HTS (OXPHOS gene expression; [3]): 1.630; MTT [1, 3]: −1.406; nucOX (nuOXPHOS transcripts; [3]): 1.431; ΔΨm [2, 3]: 0.367; ROS (reactive oxygen species; [3]): −0.449; cyt c (cytochrome c; [3]): −1.496
COc1ccc2c(c1)O[C@@H]1COc3cc(OC)c(OC)cc3[C@@H]1C2=O [mundoserone, reference compound] |  |  |  |  |  |  |  |  |  |  |  |  |  |  |  |  | mitoOX (mtOXPHOS transcripts; [3]): −0.452; Viability (C2C12 myotubes; [3]): −0.425; GE-HTS (OXPHOS gene expression; [3]): −0.606; MTT [1, 3]: −1.681; nucOX (nuOXPHOS transcripts; [3]): −0.643; ΔΨm [2, 3]: 0.837; ROS (reactive oxygen species; [3]): −0.608; cyt c (cytochrome c; [3]): 0.418
C[C@@H]1[C@H](O)[C@@H](C)/C=C/C=C/CC/C=C/C=C/C=C/C=C/C(O[C@H]2O[C@H](C)[C@@H](O)[C@H](N)[C@@H]2O)CC2O[C@](O)(CC(O)C(O)CCC(O)CC(O)CC(O)CC(=O)O[C@H]1C)CC(O)C2C(=O)O (stereo partly shown) [nystatin] | 0.289 | 0.794 | 0.326 | 0.161 | 0.284 | −0.356 | −0.043 | −0.059 |  |  |  |  |  |  |  |  | 
COc1ccc(C[C@H](N)C(=O)N[C@H]2[C@@H](O)[C@H](n3cnc4c(N(C)C)ncnc43)O[C@@H]2CO)cc1 [Puromycin, reference compound] | −1.331 | −5.718 | −3.348 | −5.624 | −4.017 | −3.989 | −2.665 | −5.573 |  |  |  |  |  |  |  |  | mito-OXPHOS Z (mtOXPHOS transcripts; [4]): 1.24; nucOXPHOS Z (nuOXPHOS transcripts; [4]): −2.80
CC1=CC(=O)C2=C(C)CC[C@@H]3[C@H](OC(=O)[C@H]3C)[C@@H]12 [leucodin] |  |  |  |  |  |  |  |  | −0.261 | −0.525 | −0.300 | −1.134 | −0.270 | −0.355 | 0.695 | −0.301 | 
COC(=O)C[C@H]1C(C)(C)C(=O)[C@@H]2CC3=C(CC[C@]4(C)C3=CC(=O)O[C@H]4c3ccoc3)[C@@]1(C)C2=O [carapin-8 (9)-ene] |  |  |  |  |  |  |  |  | 0.284 | 1.357 | 0.121 | −1.272 | −0.003 | −0.223 | 0.766 | 0.412 | 
O=C(/C=C/c1ccccc1)c1ccc(O[C@@H]2O[C@H](CO)[C@@H](O)[C@H](O)[C@H]2O)cc1O [2′,4′-dihydroxychalcone 4′-glucoside] |  |  |  |  |  |  |  |  | 0.004 | 0.556 | −0.189 | −1.358 | −0.247 | −0.532 | 1.144 | −0.225 | 
CC1(C)C2CC(=O)O[C@@]3(C)C4=CC(=O)O[C@@H](c5ccoc5)[C@]4(C)CCC3[C@@]2(C)C=C[C@H]1O (stereo partly shown) [deoxyandirobin lactone] |  |  |  |  |  |  |  |  |  |  |  |  |  |  |  |  | mitoOX (mtOXPHOS transcripts; [3]): −1.179; Viability (C2C12 myotubes; [3]): 0.281; GE-HTS (OXPHOS gene expression; [3]): −1.510; MTT [1, 3]: −1.509; nucOX (nuOXPHOS transcripts; [3]): −1.558; ΔΨm [2, 3]: −0.395; ROS (reactive oxygen species; [3]): 0.837; cyt c (cytochrome c; [3]): 0.893
NC(=O)c1ccc([N+](=O)[O-])cc1Cl [aklomide] |  |  |  |  |  |  |  |  |  |  |  |  |  |  |  |  | mitoOX (mtOXPHOS transcripts; [5]): −0.136; Viability (C2C12 myotubes; [5]): 0.408; GE-HTS (OXPHOS gene expression; [5]): 0.378; MTT [1, 5]: 1.426; nucOX (nuOXPHOS transcripts; [5]): 0.594; ΔΨm [2, 5]: −0.447; ROS (reactive oxygen species; [5]): 0.061; cyt c (cytochrome c; [5]): 0.510
theaflavin monogallate |  |  |  |  |  |  |  |  |  |  |  |  |  |  |  |  | mitoOX (mtOXPHOS transcripts; [6]): −0.612; Viability (C2C12 myotubes; [6]): 0.945; GE-HTS (OXPHOS gene expression; [6]): −0.211; MTT [1, 6]: −0.786; nucOX (nuOXPHOS transcripts; [6]): −0.017; ΔΨm [2, 6]: −0.581; ROS (reactive oxygen species; [6]): −0.820; cyt c (cytochrome c; [6]): 1.252
CC1(C)C(=O)C=C[C@]2(C)[C@H]3CC[C@@]4(C)[C@H](c5ccoc5)OC(=O)[C@H]5O[C@]54[C@]3(C)C=C[C@@H]12 [7-desacetoxy-6,7-dehydrogedunin] |  |  |  |  |  |  |  |  |  |  |  |  |  |  |  |  | mitoOX (mtOXPHOS transcripts; [6]): −2.631; Viability (C2C12 myotubes; [6]): −0.973; GE-HTS (OXPHOS gene expression; [6]): −1.430; MTT [1, 6]: −1.891; nucOX (nuOXPHOS transcripts; [6]): −0.695; ΔΨm [2, 6]: −1.799; ROS (reactive oxygen species; [6]): −3.492; cyt c (cytochrome c; [6]): 0.198
CC1(O)CC2C(CC1O)C2(C)C (stereo not shown) [3,4-dihydroxycarane] | −1.620 | 0.448 | −1.265 | −0.697 | −0.951 | −0.659 | 0.697 | 0.475 |  |  |  |  |  |  |  |  | 
COc1c(-c2ccccc2)oc2c(OC)cccc2c1=O [3,8-dimethoxyflavone] |  |  |  |  |  |  |  |  |  |  |  |  |  |  |  |  | mitoOX (mtOXPHOS transcripts; [6]): 0.492; Viability (C2C12 myotubes; [6]): 0.930; GE-HTS (OXPHOS gene expression; [6]): 0.399; MTT [1, 6]: −0.252; nucOX (nuOXPHOS transcripts; [6]): 0.315; ΔΨm [2, 6]: −0.103; ROS (reactive oxygen species; [6]): 1.553; cyt c (cytochrome c; [6]): 0.361
OC[C@H]1O[C@@H](Oc2cc(O)cc(/C=C/c3ccc(O)cc3)c2)[C@H](O)[C@@H](O)[C@@H]1O [piceid] |  |  |  |  |  |  |  |  | 0.124 | −0.341 | 0.110 | −0.826 | 0.088 | 0.088 | 0.862 | 0.272 | 
beta-sitosterol | 0.218 | −0.768 | 0.098 | −1.974 | 0.046 | −0.679 | 0.049 | 0.061 |  |  |  |  |  |  |  |  | 
Cn1c(=O)[nH]c(=O)c2[nH]cnc21 [3-methylxanthine] | −0.856 | 0.036 | −1.241 | −0.859 | −1.286 | −0.149 | 0.472 | 0.692 |  |  |  |  |  |  |  |  | 
Oc1ccc2c(c1)O[C@H](c1ccc(O)c(O)c1)[C@@H](O)C2 [fisetinidol, reference compound] |  |  |  |  |  |  |  |  | −0.536 | −1.412 | −0.998 | −1.804 | −1.107 | −1.528 | −0.215 | 0.234 | 
CC(=O)O[C@H]1C[C@@H](OC(C)=O)C(C)(C)[C@@H]2C[C@@H](OC(C)=O)[C@@]3(C)C4=CC(=O)O[C@@H](c5ccoc5)[C@]4(C)CC[C@@H]3[C@@]12C [deoxykhivorin] |  |  |  |  |  |  |  |  | −1.101 | 0.803 | −1.026 | −0.494 | −0.917 | 0.449 | −0.038 | 0.073 | 
